Earlier results, collected in US10563263B2, “Genetic polymorphisms associated with statin response and cardiovascular diseases, methods of detection and uses thereof” (CELERA CORPORATION, priority 2010, dated 2020).

System: major cardiovascular events
Conditions: JUPITER Study, 17,802 individuals (Ridker et al. 2008); cited from earlier work

## CC(C)c1nc(N(C)S(C)(=O)=O)nc(-c2ccc(F)cc2)c1/C=C/[C@@H](O)C[C@@H](O)CC(=O)O [rosuvastatin]
  incidence of major cardiovascular events (MI, stroke, arterial revascularization, hospitalization for unstable angina, death from cardiovascular causes): significantly reduced the incidence of major cardiovascular events
